Data from patent publication US20070218080A1, “Peptide antigen of human papillomavirus type 16 and application thereof” (Mackay Memorial Hospital, priority 2006, published 2007).

Key:
[1] = tested on: CD8+IFN-γ+ double-positive cells; assay: In vivo induction of CD8 T cells proliferation; design: species or system HLA-A2.1 transgenic C57BL/6 mice
Protocol: 4-6 week-old HLA-A2.1 transgenic C57BL/6 mice were immunized with 100 μl containing 100 μg of SEQ ID NO: 1 peptide in adjuvant at 0.2 μM of CpG phosphorethioate oligodeoxynucleotide 1826 (CpG ODN 1826) via intramuscular injection three times at one week intervals. Five days after the third immunization, the splenocytes of mice were recovered and the numbers of CD8^+IFN-γ^+ double-positive cells were measured using flow cytometry analyses.

[2] = tested on: β-lymphocyte (HMy2.CIR, ATCC No.: CRL-1993) target cells; assay: Cytotoxicity assay (CTL activity); type: cell-based; settings: splenocytes of immunized mice as effector cells
Protocol: The β-lymphocyte (HMy2.CIR, ATCC No.: CRL-1993) target cells were labeled with PKH-26 and carboxyfluorescein diacetate succinimidyl ester (CFSE). 4-6 week-old HLA-A2.1 transgenic C57BL/6 mice were immunized as described in Example 2 with 100 μl of the same dosage of SEQ ID NO: 1 peptide in adjuvant of CpG oligodeoxynucleotide via intramuscular injection three times at one week intervals. Five days after the third immunization, the splenocytes of mice were recovered as effector cells and incubated with the target cells […].
Target cells labeled with two dyes were cultivated in the absence of effector cells as the control group. When membrane damage occurs, the dye is almost instantaneously lost and the cells are no longer able to take up the charged dye.

[3] = molecular target: T1, HLA-A2.1 antigens on T2 cell surface (Homo sapiens, UniProt P04439, D140Y/D185E/D98H/E176V/E277Q/G131W/G231S/I119V/I121R/I166T/I218V/L300P/L318F/N151K/N90K/P208A/P217A/Q86G/Q94H/R138H/R169H/T345S); assay: T2 cell binding assay; type: cell-based; settings: T2 cells, 10 μg/ml synthetic peptide, 20 hours at 26° C., flow cytometry
T1 construct: endogenous in cells; host or cells: T2 cells
From the text: The binding test of the peptide in the invention was subjected to a T2 cell binding assay to measure the binding affinity for HLA-A2.1 antigens on T2 cell surface. T2 cells lack genes coding for transporter proteins for antigenic peptides (TAP1/TAP2) and therefore is not able to translocate peptide antigens processed by cells into the endoplasmic reticulum (ER). […] Therefore, the synthetic peptide antigens were used directly, not through cell processing, for the binding test with HLA-A2.1 antigens on T2 cell surface.
T2 cells that had been incubated overnight at 26° C. in RPMI 1640 containing 5% fetal bovine serum (FBS) were mixed with 10 μg/ml of pre-prepared synthetic peptide for 20 hours at 26° C. in RPMI containing 5% FCS and 5 μg/ml human β 2-microglobulin (β 2 m). The cells were then washed twice, incubated at 37° C. for 2 hours. […] Then the cells were incubated with fluorescein isothiocyanate (FITC) labeled anti-human HLA-A2.1 antibodies (BD Biosciences Pharmingen) to stain HLA-A2.1. The stains were fixed with 1% paraformaldehyde, and analyzed by flow cytometry. Because the binding of synthetic peptides and HLA-A2.1 antigens would be presented on the surface of lymphocytes, which could be recognized and bound by anti-human HLA-A2.1 antibodies. Therefore the fluorescein indicated the binding of synthetic peptides.

Substance | number of CD8+IFN-γ+ double-positive cells ([1]; splenocytes five days after third immunization, 100 μg peptide with CpG ODN 1826, intramuscular, three times at one week intervals) [%] | increase of CD8+IFN-γ+ double-positive cells in comparison to the irrelevant stimulator ([1]; splenocytes of immunized mice vs control group) | cytolytic activity ([2]; ET ratio 10) [%] | cytolytic activity ([2]; ET ratio 150) [%] | fluorescence intensity (FITC anti-human HLA-A2.1 staining) [3]
SEQ ID NO: 1: synthetic 9-amino-acid peptide, 63th to 71th amino acid sequence of HPV-16 E5 protein (YIIFVYIPL; Human papillomavirus type 16) | 0.32 | about 4 fold | 18 | 33 | around 22%
positive control: HLA-A2.1 binding peptide obtained from tyrosinase peptide 369-377, positive control [reference compound] | – | – | – | – | around 35%
